Laboratory results published in patent US9096639B2, “17-hydroxy-17-pentafluorethyl-estra-4,9(10)-dien-11-acyloxyalkylene phenyl derivatives, methods for the production thereof and use thereof for treating diseases” (Bayer Intellectual Property GmbH, priority 2009, dated 2015).
Counter-ions that a name gives are not always drawn.

Assays:
[1] = Determination of stability in rat plasma; type: in vitro ADME; conditions: 37° C., read-out: Stability t1/2 in rat plasma (converted)
Method: (§1) A stock solution of 1.0 mg of the substance to be tested in a 9:1 mixture of acetonitrile and dimethyl sulphoxide was prepared. 20 μl of this stock solution were added at 37° C. to 1 ml of human plasma or rat plasma. To determine the content, 100 μl samples were each taken at different times. The enzyme activity was blocked by adding 300 μl of acetonitrile, the samples were centrifuged at 5000 rpm over 10 minutes and, in the supernatant, the content of ester and hydrolysis products (8S,11R,13S,14S,17S)-17-hydroxy-11-[4-((R)-1-hydroxyethyl)phenyl]-1 3-methyl-17-pentafluoroethyl-1,2,6,7,8,11,12,13,14,15,16,17-dodecahydrocyclopenta[a]phenanthren-3-one and/or (8S,11R,13S,14S,17S)-17-hydroxy-11-[4-((S)-1-hydroxyethyl)phenyl]-13-methyl-17-pentafluoroethyl-1,2,6,7,8,11,12,13,14,15,16,17-dodecahydrocyclopenta[a]phenanthrene-3-one was determined by HPLC. The concentration-time curves were used to calculate the degradation kinetics. The stability of the substance tested was reported as the half-life.

[2] = target: T1, human progesterone receptor B (Homo sapiens, UniProt P06401); experiment: Progesterone receptor transactivation test in stably transfected SK-N-MC cells (PR-B, MMTV-LUC reporter); type: cell-based; conditions: 0.1 nmol/l promegestone, 24 hours, read-out: PR-B IC50 (antagonistic potency)
T1 construct: expressed in transfected cells; host or cells: SK-N-MC human neuroblastoma cells, stably transfected with pRChPR-B-neo and pMMTV-LUC
T1 sequence (P06401 1-933): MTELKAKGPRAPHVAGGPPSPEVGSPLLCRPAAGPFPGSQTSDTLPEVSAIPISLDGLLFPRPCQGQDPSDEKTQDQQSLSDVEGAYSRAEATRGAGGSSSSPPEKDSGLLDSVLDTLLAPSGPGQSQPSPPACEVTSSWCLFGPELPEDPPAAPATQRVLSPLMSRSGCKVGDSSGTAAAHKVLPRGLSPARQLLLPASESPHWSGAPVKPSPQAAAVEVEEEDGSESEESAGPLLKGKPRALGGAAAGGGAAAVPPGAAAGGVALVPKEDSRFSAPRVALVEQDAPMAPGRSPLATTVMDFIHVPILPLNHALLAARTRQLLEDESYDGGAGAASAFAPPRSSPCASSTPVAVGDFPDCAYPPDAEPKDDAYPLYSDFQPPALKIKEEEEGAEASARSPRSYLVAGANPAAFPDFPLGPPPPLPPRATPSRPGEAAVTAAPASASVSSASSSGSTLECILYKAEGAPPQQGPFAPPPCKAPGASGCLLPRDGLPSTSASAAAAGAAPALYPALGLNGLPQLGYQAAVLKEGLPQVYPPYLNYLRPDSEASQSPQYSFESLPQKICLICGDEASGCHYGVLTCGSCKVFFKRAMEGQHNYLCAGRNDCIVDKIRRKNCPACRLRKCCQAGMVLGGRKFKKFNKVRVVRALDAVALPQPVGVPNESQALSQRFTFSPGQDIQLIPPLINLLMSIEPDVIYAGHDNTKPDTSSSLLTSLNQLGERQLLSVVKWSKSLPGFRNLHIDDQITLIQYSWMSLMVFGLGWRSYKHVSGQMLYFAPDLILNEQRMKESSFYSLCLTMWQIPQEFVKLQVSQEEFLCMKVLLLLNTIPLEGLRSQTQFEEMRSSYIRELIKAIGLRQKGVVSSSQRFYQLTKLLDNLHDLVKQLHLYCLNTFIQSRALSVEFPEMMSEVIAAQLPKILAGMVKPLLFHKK
Method: (§2) Progesterone receptor-antagonistic action in stable transfectants of human neuroblastoma cells (SK-N-MC cells) with the human progesterone A or progesterone B receptor and an MN-LUC reporter construct SK-N-MC cells (human neuroblastoma cells) which have been stably transfected with plasmids expressing the human progesterone receptor B (pRChPR-B-neo) or the human progesterone receptor A (pRChPR-A-neo) and a reporter construct (pMMTV-LUC) were incubated for 24 hours either in the absence (negative control) or in the presence of ascending amounts of the particular test compound (0.01 nmol/l, 0.1 nmol/l, 1 […], 100 nmol/l and […]), in order to determine the agonistic efficacy. As a positive control of the reporter gene induction, the cells were treated with the synthetic gestagen promegestone (0.01 nmol/l, 0.1 nmol/l, 1 nmol/l, 10 nmol/l, 100 nmol/l and […]). To determine the antagonistic activity, the cells were treated with 0.1 nmol/l promegestone and additionally with ascending amounts of the particular test compound (0.01 nmol/l, 0.1 nmol/l, 1 nmol/l, 10 nmol/l, 100 nmol/l and […]). The activity of the reporter gene LUC (LUC=luciferase) was determined in the cell lysates and measured as RLU (relative light units). All measurements are reported as % efficacy and as EC50 and IC50 concentrations.

[3] = Determination of stability in human plasma; type: in vitro ADME
Method: as §1

[4] = target: T2, human progesterone receptor A (Homo sapiens, UniProt P06401); experiment: Progesterone receptor transactivation test in stably transfected SK-N-MC cells (PR-A, MMTV-LUC reporter); type: cell-based; conditions: 0.1 nmol/l promegestone, 24 hours, read-out: PR-A IC50 (antagonistic potency)
T2 construct: expressed in transfected cells; host or cells: SK-N-MC human neuroblastoma cells, stably transfected with pRChPR-A-neo and pMMTV-LUC
T2 sequence (P06401 1-769 isoform P06401-2): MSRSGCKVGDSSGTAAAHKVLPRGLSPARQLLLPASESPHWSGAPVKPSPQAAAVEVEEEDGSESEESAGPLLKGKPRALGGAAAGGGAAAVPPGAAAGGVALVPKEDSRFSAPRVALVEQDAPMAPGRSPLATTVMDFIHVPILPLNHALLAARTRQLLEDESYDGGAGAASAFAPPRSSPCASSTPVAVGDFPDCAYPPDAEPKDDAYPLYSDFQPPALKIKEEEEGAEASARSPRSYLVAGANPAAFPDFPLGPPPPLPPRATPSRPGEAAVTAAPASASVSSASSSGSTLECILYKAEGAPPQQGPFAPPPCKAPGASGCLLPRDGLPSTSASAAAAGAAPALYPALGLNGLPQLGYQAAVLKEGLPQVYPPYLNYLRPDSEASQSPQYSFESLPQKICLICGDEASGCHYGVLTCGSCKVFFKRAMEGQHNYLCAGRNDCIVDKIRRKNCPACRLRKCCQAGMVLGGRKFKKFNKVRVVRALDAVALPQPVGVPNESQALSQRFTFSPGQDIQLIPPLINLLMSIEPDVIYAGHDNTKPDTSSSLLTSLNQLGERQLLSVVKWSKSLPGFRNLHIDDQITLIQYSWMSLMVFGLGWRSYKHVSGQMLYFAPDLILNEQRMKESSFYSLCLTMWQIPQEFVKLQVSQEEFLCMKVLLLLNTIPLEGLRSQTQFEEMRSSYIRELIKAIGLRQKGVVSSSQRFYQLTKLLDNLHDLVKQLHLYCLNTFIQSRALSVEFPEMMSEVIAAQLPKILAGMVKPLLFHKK
Method: as §2

[5] = Determination of hydrolytic stability (5:1 dioxane/buffer, HPLC); type: physicochemical; conditions: 5:1 dioxane/buffer solution, test ended after 24 or 192 hours, read-out: Hydrolytic stability t1/2
Method: The ester to be analyzed was dissolved in each case in a 5:1 mixture of dioxane and buffer solution (pH 1.2, pH 5.0 or pH 8.0) at 23° C. At different times, the content of ester and hydrolysis products (8S,11R,13S,14S,1 7S)-17-hydroxy-11-[4-((R)-1-hydroxyethyl)phenyl]-13-methyl-17-pentafluoroethyl-1,2,6,7,8,11,12,13,14,15,16,17-dodecahydrocyclopenta[a]phenanthren-3-one and/or (8S,11R,13S,14S,17S)-17-hydroxy-11-[4-((S)-1-hydroxyethyl)phenyl]-1 3-methyl-17-pentafluoroethyl-1,2,6,7,8,11,12,13,14,15,16,17-dodecahydrocyclopenta[a]phenanthren-3-one was determined by HPLC. The test was ended after 24 hours or 192 hours.

[6] = 37° C., read-out: Stability t1/2 in human plasma (converted)
[7] = method of working example 19, summary statement in description, read-out: half-life in human plasma

| half-life [1] [h] | IC50 [2] [nM] | half-life [3, 6] [h] | IC50 [4] [nM] | half-life ([5]; pH = 1.2, 23° C.) [h] | half-life ([5]; pH = 8.0, 23° C.) [h] | half-life [3, 7] [h] | Structure (SMILES) |
| --- | --- | --- | --- | --- | --- | --- | --- |
| 5.3 | 0.74 | 9.7 | 0.27 | > 192 | > 192 |  | CC(OC(=O)[C@@H]1CCCN1)c1ccc([C@H]2C[C@@]3(C)C(CC[C@@]3(O)C(F)(F)C(F)(F)F)C3CCC4=CC(=O)CCC4=C32)cc1 (mixture of isomers) [Example 13, (S)-Pyrrolidine-2-carboxylic acid (RS)-1-[4-((8S,11R,13S,14S,17S)-17-hydroxy-13-methyl-3-oxo-17-pentafluoroethyl-2,3,6,7,8,11,12,13,14,15,16,17-dodecahydro-1H-cyclopenta[a]phenanthren-11-yl)phenyl]ethyl ester hydrochloride] |
| 0.3 | 0.09 | 231 | 0.01 |  |  | > 100 | C=CCOC(=O)N[C@@H](C)C(=O)O[C@H](C)c1ccc([C@H]2C[C@@]3(C)[C@@H](CC[C@@]3(O)C(F)(F)C(F)(F)F)[C@@H]3CCC4=CC(=O)CCC4=C32)cc1 [Example 9, (S)-2-Allyloxycarbonylaminopropionic acid (R)-1-[4-((8S,11R,13S,14S,17S)-17-hydroxy-13-methyl-3-oxo-17-pentafluoroethyl-2,3,6,7,8,11,12,13,14,15,16,17-dodecahydro-1H-cyclopenta[a]phenanthren-11-yl)phenyl]ethyl ester] |
| 462 | 0.05 | > 1000 | 0.1 | > 192 | > 192 | > 100 | CC(OC(=O)[C@@H]1CCCN1C(=O)OC(C)(C)C)c1ccc([C@H]2C[C@@]3(C)C(CC[C@@]3(O)C(F)(F)C(F)(F)F)C3CCC4=CC(=O)CCC4=C32)cc1 (mixture of isomers) [Example 11, (S)-Pyrrolidine-1,2-dicarboxylic acid 1-tert-butyl ester 2-{(RS)-1-[4-((8S,11R,13S,14S,17S)-17-hydroxy-13-methyl-3-oxo-17-pentafluoroethyl-2,3,6,7,8,11,12,13,14,15,16,17-dodecahydro-1H-cyclopenta[a]phenanthren-11-yl)phenyl]ethyl}ester] |
| 48.5 | 0.29 | 190 | 0.18 |  |  | > 100 | Cc1nccn1CCC(=O)O[C@@H](C)c1ccc([C@H]2C[C@@]3(C)[C@@H](CC[C@@]3(O)C(F)(F)C(F)(F)F)[C@@H]3CCC4=CC(=O)CCC4=C32)cc1 (single isomer, unassigned) [Example 14A] |
| 0.8 | 0.15 | 19.8 | 0.29 |  |  |  | Cc1nccn1CCC(=O)O[C@H](C)c1ccc([C@H]2C[C@@]3(C)[C@@H](CC[C@@]3(O)C(F)(F)C(F)(F)F)[C@@H]3CCC4=CC(=O)CCC4=C32)cc1 (single isomer, unassigned) [Example 14B] |
| 33.2 | 0.71 | > 1000 | 0.11 | > 192 | > 192 | > 100 | C=CCOC(=O)N[C@H](C(=O)OC(C)c1ccc([C@H]2C[C@@]3(C)C(CC[C@@]3(O)C(F)(F)C(F)(F)F)C3CCC4=CC(=O)CCC4=C32)cc1)C(C)C (mixture of isomers) [Example 16, (S)-2-Allyloxycarbonylamino-3-methylbutyric acid (RS)-1-[4-((8S,11R,13S,14S,17S)-17-hydroxy-1 3-methyl-3-oxo-1 7-pentafluoroethyl-2,3,6,7,8,11,12,13,14,15,16,17-dodecahydro-1H-cyclopenta[a]phenanthren-11-yl)phenyl]ethyl ester] |
| 3.6 | 0.09 | 22.9 | 0.08 |  |  |  | C=CCOC(=O)N[C@@H](C)C(=O)O[C@@H](C)c1ccc([C@H]2C[C@@]3(C)[C@@H](CC[C@@]3(O)C(F)(F)C(F)(F)F)[C@@H]3CCC4=CC(=O)CCC4=C32)cc1 [Example 10, (S)-2-Allyloxycarbonylaminopropionic acid (S)-1-[4-((8S,11R,13S,14S,17S)-17-hydroxy-13-methyl-3-oxo-17-pentafluoroethyl-2,3,6,7,8,11,12,13,14,15,16,17-dodecahydro-1H-cyclopenta[a]phenanthren-11-yl)phenyl]ethy lester] |
